pEC50: −log10 of the molar value.
Assays:
[1] = Toxicity in rat assessed as hepatocellular vacuolation at 50 mg/kg,po for 1 week; assay type: organism-based; details: in vivo, 168 h, time 1 weeks
[2] = Oral bioavailability in Sprague-Dawley rat at 5 mg/kg by LC-MS/MS analysis; assay type: ADME, organism-based; details: in vivo
[3] = test system: Human immunodeficiency virus 1; experiment: Antiviral activity against recombinant HIV1 NLRep-Rluc harbouring polymorphic A124/T125 integrase infected in human MT-2 cells assessed as inhibition of virus growth in presence of fetal bovine serum by measuring luciferase activity after 4 days; assay type: functional, organism-based; details: Human immunodeficiency virus 1, NLRep, MT2, 96 h
[4] = Oral bioavailability in Beagle dog at 2 mg/kg by LC-MS/MS analysis; assay type: ADME, organism-based, Canis lupus familiaris; details: in vivo
[5] = test system: Hepatoma cell line; experiment: Cytotoxicity against rat Hepatoma cell line at 40 to 80 uM; assay type: toxicity, cell-based; details: dose 40-80 µM
[6] = Toxicity in rat assessed as increase in alkaline phosphatase level at 50 mg/kg,po for 1 week; assay type: organism-based; details: in vivo, 168 h, time 1 weeks
[7] = Toxicity in dog assessed as hepatocellular vacuolation at 60 mg/kg,po for 1 week; assay type: organism-based, Canis lupus familiaris; details: in vivo, 168 h, time 1 weeks
[8] = Clearance in cynomolgus monkey at 1 mg/kg, iv by LC-MS/MS analysis; assay type: ADME, organism-based, Macaca fascicularis; details: in vivo
[9] = test system: Human immunodeficiency virus 1; experiment: Antiviral activity against recombinant HIV1 NLRep-Rluc harbouring polymorphic T124/V125 integrase infected in human MT-2 cells assessed as inhibition of virus growth in presence of fetal bovine serum by measuring luciferase activity after 4 days; assay type: functional, organism-based; details: Human immunodeficiency virus 1, NLRep, MT2, 96 h
[10] = Toxicity in dog assessed as increase in alkaline phosphatase level at 60 mg/kg,po for 1 week; assay type: organism-based, Canis lupus familiaris; details: in vivo, 168 h, time 1 weeks
[11] = Clearance in CD-1 mouse at 1 mg/kg, iv by LC-MS/MS analysis; assay type: ADME, organism-based; details: in vivo
[12] = Clearance in Sprague-Dawley rat at 1 mg/kg, iv by LC-MS/MS analysis; assay type: ADME, organism-based; details: in vivo
[13] = test system: Human immunodeficiency virus 1; experiment: Antiviral activity against recombinant HIV1 NLRep-Rluc harbouring polymorphic T124/A125 integrase infected in human MT-2 cells assessed as inhibition of virus growth in presence of fetal bovine serum by measuring luciferase activity after 4 days; assay type: functional, organism-based; details: Human immunodeficiency virus 1, NLRep, MT2, 96 h
[14] = Toxicity in human Huh-7 cells assessed as fold change in lipid droplet count at 10 uM incubated for 48 hrs by plate reader assay; assay type: cell-based; details: huh-7, 48 h
[15] = test system: Human immunodeficiency virus 1; experiment: Antiviral activity against recombinant HIV1 NLRep-Rluc harbouring polymorphic A124/A125 integrase infected in human MT-2 cells assessed as inhibition of virus growth in presence of fetal bovine serum by measuring luciferase activity after 4 days; assay type: functional, organism-based; details: Human immunodeficiency virus 1, NLRep, MT2, 96 h
[16] = test system: Human immunodeficiency virus 1; experiment: Antiviral activity against recombinant HIV1 NLRep-Rluc harbouring polymorphic T124/T125 integrase infected in human MT-2 cells assessed as inhibition of virus growth in presence of fetal bovine serum by measuring luciferase activity after 4 days; assay type: functional, organism-based; details: Human immunodeficiency virus 1, NLRep, MT2, 96 h
[17] = Toxicity in human Huh-7 cells assessed as fold change in lipid droplet count at 20 uM incubated for 48 hrs by plate reader assay; assay type: cell-based; details: hepatoma cell line
[18] = Cytotoxicity against human MT2 cells; assay type: toxicity, cell-based
[19] = Oral bioavailability in CD-1 mouse at 5 mg/kg by LC-MS/MS analysis; assay type: ADME, organism-based; details: in vivo
[20] = AUC (0 to infinity) in Beagle dog at 2 mg/kg, po by LC-MS/MS analysis; assay type: ADME, organism-based, Canis lupus familiaris; parameters: time infinity, dose 2 mg/kg, route po; details: in vivo
[21] = AUC (0 to infinity) in cynomolgus monkey at 2 mg/kg, po by LC-MS/MS analysis; assay type: ADME, organism-based, Macaca fascicularis; parameters: time infinity, dose 2 mg/kg, route po; details: in vivo
[22] = AUC (0 to infinity) in CD-1 mouse at 5 mg/kg, po by LC-MS/MS analysis; assay type: ADME, organism-based; parameters: time infinity, dose 5 mg/kg, route po; details: in vivo
[23] = Cmax in rat at 50 mg/kg,po qd for 1 week; assay type: ADME, organism-based; parameters: time 1 weeks, dose 50 mg/kg, route po; details: in vivo
[24] = test system: Huh-7; experiment: Cytotoxicity against human Huh-7 cells at 40 to 80 uM; assay type: toxicity, cell-based; details: huh-7, 80 µM, dose 40-80 µM
[25] = test system: Human immunodeficiency virus 1; experiment: Antiviral activity against recombinant HIV1 NLRep-Rluc harbouring polymorphic N124/T125 integrase infected in human MT-2 cells assessed as inhibition of virus growth in presence of fetal bovine serum by measuring luciferase activity after 4 days; assay type: functional, organism-based; details: Human immunodeficiency virus 1, NLRep, MT2, 96 h
[26] = Oral bioavailability in cynomolgus monkey at 2 mg/kg by LC-MS/MS analysis; assay type: ADME, organism-based, Macaca fascicularis; details: in vivo
[27] = Clearance in Beagle dog at 1 mg/kg, iv by LC-MS/MS analysis; assay type: ADME, organism-based, Canis lupus familiaris; details: in vivo
[28] = Toxicity in rat Hepatoma cell line assessed as fold change in lipid droplet count at 10 uM incubated for 48 hrs by plate reader assay; assay type: cell-based
[29] = test system: Human immunodeficiency virus 1; experiment: Antiviral activity against recombinant HIV1 NLRep-Rluc harbouring polymorphic N124/A125 integrase infected in human MT-2 cells assessed as inhibition of virus growth in presence of fetal bovine serum by measuring luciferase activity after 4 days; assay type: functional, organism-based; details: Human immunodeficiency virus 1, NLRep, MT2, 96 h
[30] = AUC (0 to infinity) in Sprague-Dawley rat at 5 mg/kg, po by LC-MS/MS analysis; assay type: ADME, organism-based; parameters: time infinity, dose 5 mg/kg, route po; details: in vivo

Cc1cccc(Cl)c1CN1CCc2cc(-c3cnc(C)c([C@H](OC(C)(C)C)C(=O)O)c3N3CCC(C)(C)CC3)ccc2C1
Activity [1]: Toxic | bioavailability [2]: 71% | pEC50 [3]: 8.35 | bioavailability [4]: 89% | Activity [5]: Toxic | Activity [6]: Toxic | Activity [7]: Toxic | clearance [8]: 1.7 mL/min/kg | pEC50 [9]: 8.80 | Activity [10]: Toxic | clearance [11]: 1 mL/min/kg | clearance [12]: 3.8 mL/min/kg | pEC50 [13]: 8.30 | fold change (FC) [14]: 1.2 | pEC50 [15]: 8.34 | pEC50 [16]: 8.55 | fold change (FC) [17]: 3.7 | CC50 [18]: 19500 nM | bioavailability [19]: 47% | AUC(0-inf) [20]: 24.2 µM·h | AUC(0-inf) [21]: 10.7 µM·h | AUC(0-inf) [22]: 43.1 µM·h | Cmax [23]: 488 µM | Activity [24]: Toxic | pEC50 [25]: 8.51 | bioavailability [26]: 51% | clearance [27]: 2.2 mL/min/kg | fold change (FC) [28]: 1.8 | pEC50 [29]: 8.24 | AUC(0-inf) [30]: 21.6 µM·h

Source: ChEMBL document CHEMBL5131559, “Discovery and Preclinical Profiling of GSK3839919, a Potent HIV-1 Allosteric Integrase Inhibitor” (ACS Med Chem Lett, 2022)
